The results in this text go back to US11046710B2, “Sulfonamide compounds” (DAIICHI SANKYO COMPANY, LIMITED, priority 2016, dated 2021).

As usually defined, the IC50 is the concentration that inhibits the measured activity by half. Lower therefore signals inhibition by little substance.

The experiment addresses human TNAP (Homo sapiens (Human), UniProt P05186). Briefly: Inhibitory test of TNAP activity (pNPP substrate, p-nitrophenol production). The conditions noted are these: human TNAP from transfected COS1 culture supernatant, 60 minutes at room temperature. It is filed as biochemical. As for the experimental part:
COS1 cells (DS Pharma Biomedical Co., Ltd.) were transfected with human TNAP (OriGene Technologies, Inc.) using Lipofectamine LTX & Plus reagent (Invitrogen Corp.). On the next day, the medium was replaced with a fresh medium, and the cells were cultured in an incubator for 3 days. After 3 days, the culture supernatant was collected and concentrated by centrifugation at 5000 G for 30 minutes using Amicon 14, 10^4 cut (Merck Millipore). The concentrated culture supernatant was dialyzed against 5 L of 50 mM Tris/200 mM NaCl/1 mM MgCl2/20 μM ZnCl2 twice and used as an enzyme source (enzyme solution). The substrate pNPP (ProteoChem Inc.) was adjusted to 3.1 mM with Milli-Q water, and a solution of each test compound dissolved in dimethyl sulfoxide (DMSO; Wako Pure Chemical Industries, Ltd.) by 6 serial dilutions at a 5-fold common ratio from 100 μM, or DMSO was added thereto at a final concentration of 1% by volume. The enzyme solution adjusted to 2 μg/mL with an assay buffer (200 mM Tris/2 mM MgCl2/0.04 mM ZnCl2/0.01% Tween 20) was added in the same amount of the substrate solution and incubated at room temperature for 60 minutes. Then, the absorbance (ABS: 405 nm) was measured using a microplate reader (model plus 384, Molecular Devices, LLC), and the concentration of produced p-nitrophenol was calculated.

Chain of human TNAP (P05186 18-524): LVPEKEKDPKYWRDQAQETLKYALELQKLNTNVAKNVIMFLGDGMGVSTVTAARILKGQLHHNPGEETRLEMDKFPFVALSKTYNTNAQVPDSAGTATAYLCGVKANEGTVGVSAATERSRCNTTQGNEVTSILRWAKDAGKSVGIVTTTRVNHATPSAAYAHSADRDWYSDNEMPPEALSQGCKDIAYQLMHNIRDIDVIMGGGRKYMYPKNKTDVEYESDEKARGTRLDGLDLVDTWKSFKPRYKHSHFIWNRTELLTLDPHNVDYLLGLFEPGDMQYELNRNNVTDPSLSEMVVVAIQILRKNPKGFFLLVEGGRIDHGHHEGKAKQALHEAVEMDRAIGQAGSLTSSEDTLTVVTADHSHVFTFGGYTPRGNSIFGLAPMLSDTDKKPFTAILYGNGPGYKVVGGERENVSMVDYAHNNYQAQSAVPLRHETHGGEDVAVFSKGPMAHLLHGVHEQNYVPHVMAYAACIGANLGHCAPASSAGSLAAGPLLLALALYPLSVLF

Molecule `COc1ccc(Cl)cc1S(=O)(=O)Nc1cnc2c(c1)C(=O)N1CCC[C@@H]1CO2` [Example 28, 5-chloro-2-methoxy-N-[(9aR)-5-oxo-8,9,9a,10-tetrahydro-5H,7H-pyrido[3,2-f]pyrrolo[2,1-c][1,4]oxazepin-3-yl]benzenesulfonamide] displayed an IC50 of 1.2 nM. This lies in the single-digit nanomolar range. In turn, `COc1ccc(Cl)cc1S(=O)(=O)Nc1cnc2c(c1)CN1C(=O)CC[C@H]1CO2` [Example 52, 5-chloro-2-methoxy-N-[(9aS)-7-oxo-8,9,9a,10-tetrahydro-5H,7H-pyrido[3,2-f]pyrrolo[2,1-c][1,4]oxazepin-3-yl]benzenesulfonamide] showed an IC50 of 2.2 nM.

On to `COc1ccc(Cl)cc1S(=O)(=O)Nc1cnc2c(c1)CN1C(=O)CCC[C@H]1CO2` [Example 59, 5-chloro-2-methoxy-N-[(10aS)-7-oxo-7,8,9,10,10a, 11-hexahydro-5H-dipyrido[2,1-c:3′,2′-f][1,4]oxazepin-3-yl]benzenesulfonamide], for which the midpoint of inhibition, the IC50, lay at 1.4 nM. `O=C1c2cc(NS(=O)(=O)c3cc(F)ccc3OC(F)(F)F)cnc2OC[C@H]2C[C@H](O)CN12` [Example 34, 5-fluoro-N-[(8S,9aR)-8-hydroxy-5-oxo-8,9,9a,10-tetrahydro-5H,7H-pyrido[3,2-f]pyrrolo[2,1-c][1,4]oxazepin-3-yl]-2-(trifluoromethoxy)benzenesulfonamide] returned an IC50 of 1.6 nM. This IC50 and that of the molecule before are within 1.5-fold of each other. `COc1ncc(Cl)cc1S(=O)(=O)Nc1cnc2c(c1)-c1ccnn1[C@H](C)CO2` [Example 23, 5-chloro-2-methoxy-N-[(5R)-5-methyl-5,6-dihydropyrazolo[1,5-d]pyrido[3,2-f][1,4]oxazepin-10-yl]pyridine-3-sulfonamide] showed an IC50 of 5.7 nM. The same measure for `COc1ccc(Cl)cc1S(=O)(=O)Nc1cnc2c(c1)-c1nnc(C)n1CCO2` [Example 1, 5-chloro-2-methoxy-N-(3-methyl-5,6-dihydropyrido[3,2-f][1,2,4]triazolo[4,3-d][1,4]oxazepin-10-yl)benzenesulfonamide]: 2.6 nM. Molecule `COc1ccc(Cl)cc1S(=O)(=O)Nc1cnc2c(c1)C(=O)N1CC[C@H](O)[C@@H]1CO2` [Example 41, 5-chloro-N-[(9S,9aS)-9-hydroxy-5-oxo-8,9,9a,10-tetrahydro-5H,7H-pyrido[3,2-f]pyrrolo[2,1-c][1,4]oxazepin-3-yl]-2-methoxybenzenesulfonamide] came in with an IC50 of 0.4 nM. This IC50 is about 6.5-fold lower than that of the molecule before.

For the molecule `COc1ccc(Cl)cc1S(=O)(=O)Nc1cnc2c(c1)-c1ccnn1[C@@H](C)CO2` [Example 16, 5-chloro-2-methoxy-N-[(5S)-5-methyl-5,6-dihydropyrazolo[1,5-d]pyrido[3,2-f][1,4]oxazepin-10-yl]benzenesulfonamide], the IC50 was 3.5 nM. On to `CCOc1ccc(F)cc1S(=O)(=O)Nc1cnc2c(c1)-c1ccnn1[C@H](C)CO2` [Example 20, 2-ethoxy-5-fluoro-N-[(5R)-5-methyl-5,6-dihydropyrazolo[1,5-d]pyrido[3,2-f][1,4]oxazepin-10-yl]benzenesulfonamide], for which inhibition was half-maximal at 4.2 nM (IC50).

Consider `COc1ccc(Cl)cc1S(=O)(=O)Nc1cnc2c(c1)C(=O)N1C[C@@H](F)C[C@@H]1CO2` [Example 44, 5-chloro-N-[(8S,9aR)-8-fluoro-5-oxo-8,9,9a,10-tetrahydro-5H,7H-pyrido[3,2-f]pyrrolo[2,1-c][1,4]oxazepin-3-yl]-2-methoxybenzenesulfonamide], for which the IC50 stood at 0.8 nM.

In turn, `COc1ccc(Cl)cc1S(=O)(=O)Nc1cnc2c(c1)CN1C(=O)COC[C@H]1CO2` [Example 60, 5-chloro-2-methoxy-N-[(10aS)-7-oxo-7,8,10a,11-tetrahydro-5H,10H-[1,4]oxazino[3,4-c]pyrido[3,2-f][1,4]oxazepin-3-yl]benzenesulfonamide] gave an IC50 of 3.3 nM. The same measure for `CC(=O)O[C@H]1C[C@@H]2COc3ncc(NS(=O)(=O)c4cc(Cl)ccc4OC(F)(F)F)cc3C(=O)N2C1` [Example 47, (8S,9aR)-3-({[5-chloro-2-(trifluoromethoxy)phenyl]sulfonyl}amino)-5-oxo-8,9,9a,10-tetrahydro-5H,7H-pyrido[3,2-f]pyrrolo[2,1-c][1,4]oxazepin-8-yl acetate]: 1.5 nM.
